Experiment [1] has as its target T1, IKZF2 (Homo sapiens, UniProt Q96SW2+Q9UKS7).
T1 construct: expressed in transfected cells
Kind of experiment: HiBiT protein tagging assay, in vitro IKZF2 degradation (HEK293). Type of experiment: cell-based. As to conditions: HEK293, 18-24 hr incubation, normalized to DMSO control; for Dmax: HEK293, HiBiT assay, read-out: IKZF2 Dmax (maximum degradation at the highest concentration tested); for DC50: HiBiT assay, read-out: IKZF2 EC50. Put shortly: (§1)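 Flp-In T-REx HEK293 pools stably expressing C-terminal HiBiT-tagged IKZF1 or IKZF2 were induced overnight with 1 μg/ml doxycycline. Cells were then treated with serially diluted compound for 18-24 hr at 37 °C and read by Nano-Glo lytic luminescence. Data were normalized to 0.5% DMSO as POC; EC50 and Dmax (maximum degradation at highest concentration tested) reported.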
(In general: The HiBiT peptide binds its large partner to form an active luciferase.)

Experiment [2] addresses T2, IKZF1 (Homo sapiens, UniProt Q13422+Q96SW2).
T2 construct: expressed in transfected cells
Kind of experiment: HiBiT protein tagging assay, in vitro IKZF1 degradation (HEK293). Format: cell-based. As to conditions: HEK293, 18-24 hr incubation, normalized to DMSO control; for Dmax: read-out: IKZF1 Dmax (maximum degradation at the highest concentration tested); for DC50: read-out: IKZF1 EC50. An outline of the steps:
as §1

The values below come from patent publication US20240124412A1, “IKAROS ZINC FINGER FAMILY DEGRADERS AND USES THEREOF” (Gilead Sciences, Inc., priority 2021, published 2024).

T2 sequence (Q13422 whole entry): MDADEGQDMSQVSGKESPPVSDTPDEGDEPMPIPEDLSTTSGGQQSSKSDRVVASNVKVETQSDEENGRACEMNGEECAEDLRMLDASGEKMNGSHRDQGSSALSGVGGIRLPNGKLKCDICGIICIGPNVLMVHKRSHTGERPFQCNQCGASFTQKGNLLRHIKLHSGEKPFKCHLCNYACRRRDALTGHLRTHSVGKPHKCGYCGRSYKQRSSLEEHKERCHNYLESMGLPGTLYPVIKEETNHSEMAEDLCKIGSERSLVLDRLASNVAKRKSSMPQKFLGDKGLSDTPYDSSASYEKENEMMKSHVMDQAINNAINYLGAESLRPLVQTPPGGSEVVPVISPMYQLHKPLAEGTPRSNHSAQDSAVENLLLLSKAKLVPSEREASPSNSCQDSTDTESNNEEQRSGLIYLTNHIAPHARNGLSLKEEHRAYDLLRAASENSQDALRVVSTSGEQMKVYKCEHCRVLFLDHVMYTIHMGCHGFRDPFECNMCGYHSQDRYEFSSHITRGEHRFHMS
T2 sequence (Q96SW2 whole entry): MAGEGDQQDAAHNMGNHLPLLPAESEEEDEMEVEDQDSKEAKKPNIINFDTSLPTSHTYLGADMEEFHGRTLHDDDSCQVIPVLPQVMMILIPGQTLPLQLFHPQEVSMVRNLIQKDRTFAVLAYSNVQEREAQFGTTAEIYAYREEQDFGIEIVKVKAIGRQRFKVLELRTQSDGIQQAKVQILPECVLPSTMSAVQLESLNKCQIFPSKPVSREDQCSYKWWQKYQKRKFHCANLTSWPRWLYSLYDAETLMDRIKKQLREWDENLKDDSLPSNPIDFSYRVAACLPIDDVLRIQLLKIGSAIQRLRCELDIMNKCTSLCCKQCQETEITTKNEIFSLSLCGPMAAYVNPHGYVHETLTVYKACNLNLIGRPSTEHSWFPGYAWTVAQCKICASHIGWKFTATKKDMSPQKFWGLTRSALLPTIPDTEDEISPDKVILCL
T2 sequence (Q16531 whole entry partner): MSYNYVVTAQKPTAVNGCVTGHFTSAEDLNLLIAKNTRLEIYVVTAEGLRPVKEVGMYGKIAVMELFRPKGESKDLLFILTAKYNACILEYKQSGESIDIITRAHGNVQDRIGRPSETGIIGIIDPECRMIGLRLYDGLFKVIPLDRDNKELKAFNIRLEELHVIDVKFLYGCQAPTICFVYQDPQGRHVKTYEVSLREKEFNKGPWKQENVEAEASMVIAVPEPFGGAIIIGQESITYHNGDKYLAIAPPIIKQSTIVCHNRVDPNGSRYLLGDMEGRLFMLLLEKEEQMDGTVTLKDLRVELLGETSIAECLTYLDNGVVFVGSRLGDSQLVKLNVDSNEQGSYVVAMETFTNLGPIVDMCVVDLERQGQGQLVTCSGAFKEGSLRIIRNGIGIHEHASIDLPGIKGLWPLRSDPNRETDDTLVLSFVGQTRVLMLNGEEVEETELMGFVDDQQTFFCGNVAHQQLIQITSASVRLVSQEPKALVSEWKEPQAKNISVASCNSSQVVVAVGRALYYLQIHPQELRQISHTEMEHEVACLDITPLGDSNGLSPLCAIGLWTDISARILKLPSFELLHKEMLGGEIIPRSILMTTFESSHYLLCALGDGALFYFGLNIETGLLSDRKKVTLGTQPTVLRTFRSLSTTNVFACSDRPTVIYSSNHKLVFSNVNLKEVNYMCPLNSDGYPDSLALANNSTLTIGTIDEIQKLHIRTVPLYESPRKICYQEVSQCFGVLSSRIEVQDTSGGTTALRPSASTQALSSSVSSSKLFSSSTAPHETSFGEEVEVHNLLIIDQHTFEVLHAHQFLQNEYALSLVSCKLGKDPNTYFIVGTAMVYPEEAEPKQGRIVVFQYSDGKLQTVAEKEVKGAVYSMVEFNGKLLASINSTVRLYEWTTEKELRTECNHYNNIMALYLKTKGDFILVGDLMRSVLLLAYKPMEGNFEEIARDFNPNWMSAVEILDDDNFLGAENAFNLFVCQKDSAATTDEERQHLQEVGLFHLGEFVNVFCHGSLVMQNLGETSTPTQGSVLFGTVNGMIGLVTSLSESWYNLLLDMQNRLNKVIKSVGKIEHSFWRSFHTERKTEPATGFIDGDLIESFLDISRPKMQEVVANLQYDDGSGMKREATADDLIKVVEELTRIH
T1 sequence (Q9UKS7 1-500 isoform Q9UKS7-2): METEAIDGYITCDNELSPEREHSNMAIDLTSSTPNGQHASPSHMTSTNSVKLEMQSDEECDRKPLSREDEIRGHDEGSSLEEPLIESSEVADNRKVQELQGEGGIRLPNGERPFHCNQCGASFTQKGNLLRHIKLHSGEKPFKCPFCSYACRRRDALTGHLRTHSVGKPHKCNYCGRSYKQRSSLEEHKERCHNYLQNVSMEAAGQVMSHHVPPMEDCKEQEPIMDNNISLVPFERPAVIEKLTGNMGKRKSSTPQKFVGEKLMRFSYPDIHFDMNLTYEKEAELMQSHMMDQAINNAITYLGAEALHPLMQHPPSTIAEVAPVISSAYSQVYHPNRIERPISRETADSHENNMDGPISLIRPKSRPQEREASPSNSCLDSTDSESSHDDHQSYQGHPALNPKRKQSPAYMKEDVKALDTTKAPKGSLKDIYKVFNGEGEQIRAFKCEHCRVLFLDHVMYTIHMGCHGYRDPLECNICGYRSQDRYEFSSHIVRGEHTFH
T1 sequence (Q96SW2 whole entry): as the sequence (Q96SW2 whole entry) above
T1 sequence (Q16531 whole entry partner): as the sequence (Q16531 whole entry partner) above

`O=C1CCC(N2Cc3cc(CNC4CCC5(CC4)COC5)ccc3C2=O)C(=O)N1` (centres unmarked) [Example 60]: in experiment [1], the Dmax worked out at 84% and the DC50 stood at 401 nM. Also, in experiment [2], the Dmax came out at 55% and the DC50 was 403 nM.
For `C[C@@H]1CCCC[C@@H]1NCc1ccc2c(c1)CN(C1CCC(=O)NC1=O)C2=O` (some centres unmarked) [Example 46], the Dmax in experiment [1] worked out at 76%; in experiment [2], 36%. In addition, the values for the DC50 in experiment [1] and in experiment [2] were 141 nM and 275 nM, respectively.
`CC(C)NCc1ccc2c(c1)CN(C1CCC(=O)NC1=O)C2=O` (centres unmarked) [Example 9, 3-(5-((isopropylamino)methyl)-1-oxoisoindolin-2-yl)piperidine-2,6-dione]: in experiment [1], the Dmax is 48% and the DC50 worked out at 738 nM. Moreover, in experiment [2], the Dmax was 51% and the DC50 was determined as 351 nM.
For `O=C1CCC(N2Cc3cc(CNC4CCCC4)ccc3C2=O)C(=O)N1` (centres unmarked) [Example 8] the same measures were 55%, 143 nM, 26% and 131 nM.
For `O=C1CCC(N2Cc3cc(CN[C@@H]4CCCC[C@H]4OCc4ccccc4Cl)ccc3C2=O)C(=O)N1` (some centres unmarked) [Example 145] the same measures were 92%, 78 nM, 31% and 246 nM.
For `O=C1CCC(N2Cc3cc(CN[C@H]4CCC[C@@H](O)C4)ccc3C2=O)C(=O)N1` (some centres unmarked) [Example 81] the same measures were 67%, 1300 nM, 45% and 762 nM.
For `O=C1CCC(N2Cc3cc(CNCc4cc5ccccc5[nH]4)ccc3C2=O)C(=O)N1` (centres unmarked) [Example 64], the Dmax in experiment [1] amounted to 45%; in experiment [2], 80%. Further, the values for the DC50 in experiment [1] and in experiment [2] were 276 nM and 61 nM, respectively.
For the molecule `O=C1CCC(N2Cc3cc(CNCC4CCc5ccccc5C4)ccc3C2=O)C(=O)N1` (centres unmarked) [Example 23, 3-(1-oxo-5-((((1,2,3,4-tetrahydronaphthalen-2-yl)methyl)amino)methyl)isoindolin-2-yl)piperidine-2,6-dione], in experiment [1], the Dmax stood at 49% and the DC50 turned out to be 210 nM. In addition, in experiment [2], the Dmax stood at 86% and the DC50 turned out to be 36 nM.
For `O=C1CCC(N2Cc3cc(CN[C@@H]4CCCC[C@@H]4O)ccc3C2=O)C(=O)N1` (relative stereo) [Example 49, 3-(5-(((cis-2-Hydroxycyclohexyl)amino)methyl)-1-oxoisoindolin-2-yl)piperidine-2,6-dione] the same measures were 70%, 449 nM, 38% and 153 nM.
For `O=C1CCC(N2Cc3cc(CNC4CCC5(CC4)CC5)ccc3C2=O)C(=O)N1` (centres unmarked) [Example 58] the same measures were 81%, 67 nM, 66% and 50 nM.
For `C[C@H]1CC[C@@H](NCc2ccc3c(c2)CN(C2CCC(=O)NC2=O)C3=O)CC1` (some centres unmarked) [Example 89] the same measures were 76%, 139 nM, 42% and 127 nM.
Turning to `O=C1CCC(N2Cc3cc(CN[C@@H]4CCCN(Cc5ccccc5)C4)ccc3C2=O)C(=O)N1` (stereo partly drawn) [Example 20, 3-(5-((((R)-1-benzylpiperidin-3-yl)amino)methyl)-1-oxoisoindolin-2-yl)piperidine-2,6-dione], in experiment [1], the Dmax came out at 97% and the DC50 is 32 nM. In experiment [2], the Dmax turned out to be 95% and the DC50 was found to be 7 nM.
In the case of `O=C1CCC(N2Cc3cc(CN[C@H]4CCCN(Cc5ccccc5)C4)ccc3C2=O)C(=O)N1` (stereo partly drawn) [Example 21, 3-(5-((((S)-1-benzylpiperidin-3-yl)amino)methyl)-1-oxoisoindolin-2-yl)piperidine-2,6-dione], in experiment [1], the Dmax is 72% and the DC50 came out at 261 nM. In experiment [2], the Dmax was 79% and the DC50 is 56 nM.
For `O=C1CCC(N2Cc3cc(CN[C@@H]4CCC[C@H](Oc5ccccc5)C4)ccc3C2=O)C(=O)N1` (some centres unmarked) [Example 92] the same measures were 85%, 41 nM, 61% and 16 nM.
For `O=C1CCC(N2Cc3cc(CN[C@H]4CCN(Cc5ccccc5)C4)ccc3C2=O)C(=O)N1` (stereo partly drawn) [Example 19, 3-(5-((((S)-1-benzylpyrrolidin-3-yl)amino)methyl)-1-oxoisoindolin-2-yl)piperidine-2,6-dione] the same measures were 52%, 442 nM, 46% and 122 nM.
For `O=C1CCC(N2Cc3cc(CN[C@@H]4CCCN(Cc5cccnc5)C4)ccc3C2=O)C(=O)N1` (stereo partly drawn) [Example 124, 3-(1-oxo-5-((((R)-1-(pyridin-3-ylmethyl)piperidin-3-yl)amino)methyl)isoindolin-2-yl)piperidine-2,6-dione] the same measures were 96%, 318 nM, 96% and 115 nM.
Turning to `O=C1CCC(N2Cc3cc(CN[C@H]4C[C@H]5CC[C@@H]4C5)ccc3C2=O)C(=O)N1` (some centres unmarked) [Example 72], in experiment [1], the Dmax worked out at 23% and the DC50 amounted to 389 nM. In addition, in experiment [2], the DC50 was more than 10000 nM.
For `O=C1CCC(N2Cc3cc(CN[C@H]4CCOc5ccccc54)ccc3C2=O)C(=O)N1` (stereo partly drawn) [Example 17, 3-(5-((((S)-chroman-4-yl)amino)methyl)-1-oxoisoindolin-2-yl)piperidine-2,6-dione], in experiment [1], the Dmax is 48% and the DC50 came to 230 nM. Further, in experiment [2], the Dmax turned out to be 65% and the DC50 was 31 nM.
For `C[C@@H]1CCCC[C@H]1NCc1ccc2c(c1)CN(C1CCC(=O)NC1=O)C2=O` (some centres unmarked) [Example 101] the same measures were 71%, 157 nM, 23% and 107 nM.
For `CCN1CCC(NCc2ccc3c(c2)CN(C2CCC(=O)NC2=O)C3=O)CC1` (centres unmarked) [Example 48, 3-(5-(((1-Ethylpiperidin-4-yl)amino)methyl)-1-oxoisoindolin-2-yl)piperidine-2,6-dione] the same measures were 32%, 2800 nM, 25% and 655 nM.
Turning to `O=C1CCC(N2Cc3cc(CNC45CCCC(O)(C4)C5)ccc3C2=O)C(=O)N1` (centres unmarked) [Example 143], the Dmax in experiment [1] came out at 66%. In addition, the DC50 in experiment [1] was 243 nM; in experiment [2], more than 1000 nM.
Regarding `C[C@@H](c1ccccc1)N1CCC[C@@H](NCc2ccc3c(c2)CN(C2CCC(=O)NC2=O)C3=O)C1` (stereo partly drawn) [Example 27, 3-(1-oxo-5-((((R)-1-((S)-1-phenylethyl)piperidin-3-yl)amino)methyl)isoindolin-2-yl)piperidine-2,6-dione], in experiment [1], the Dmax was found to be 93% and the DC50 worked out at 41 nM. Moreover, in experiment [2], the Dmax amounted to 94% and the DC50 turned out to be 9 nM.
`COCC1(NCc2ccc3c(c2)CN(C2CCC(=O)NC2=O)C3=O)CCCCC1` (centres unmarked) [Example 154, 3-(5-(((1-(methoxymethyl)cyclohexyl)amino)methyl)-1-oxoisoindolin-2-yl)piperidine-2,6-dione]: in experiment [1], the Dmax came out at 47% and the DC50 is 293 nM. Moreover, the DC50 in experiment [2] was more than 1000 nM.
